From patent US20240041733A1, “DENTAL CARE COMPOSITION AND METHOD OF PROMOTING CALCIFICATION IN LIVING BODY TISSUE” (KINJIRUSHI CO., LTD., priority 2020, published 2024)
“Also recorded” adds a separate entry of the source.

Columns and labels:
[1] = test system: Human odontoblast (HOB) cells; test: Evaluation of calcification promoting action using human odontoblasts (Alizarin red and von Kossa staining); assay type: cell-based; settings: for calcification promoting action: calcification medium with additive, Alizarin red / von Kossa staining; for relative calcification promoting action (comparison among compounds): compared by concentration of particularly high action and by extent of staining at 50 μM
Experimental: 1. Cultivation of Human Odontoblast (Human Odontoblast (HOB) Cells)
HOB cells are seeded in a T75 flask and cultivated until confluency was achieved. A culture medium (hereinafter referred to as “regular medium”) was prepared by adding 10% of fetal bovine serum (FBS) (Life Technologies Ltd.; Product No. 10437-028), 1% of penicillin-streptomycin (Life Technologies Ltd.; Product No. 15140-122), 1% of amphotericin B (Sigma-Aldrich, Product No. A2942-100ML) to MEMα (Life Technologies Ltd.; Product No. 12561-049, 12561-056). Cultivation was performed under an environment with a temperature of 37° C. and 5% of CO2.
Then the HOB Cells were seeded on an adherent cell cultivation plate (Sumitomo Bakelite Co., Ltd) such that the cell density per 1 well was 1.78 to 2.56×10^5 cells/mL, and cultivated under the same environment. As the adherent cell cultivation plate, plates having 6 to 96 wells were appropriately used.
Four days later, each culture medium was changed from the regular medium to a calcification medium, or to a culture medium (hereinafter, referred to as “additive containing calcification medium”) prepared by adding additional components shown in the following Table 4 and Table 5 to the calcification medium so as to achieve the concentrations shown in Table 4 and Table 5. The calcification medium is prepared by adding L (+)-ascorbic acid (Wako Pure Chemical Industries, Ltd. (currently Fujifilm Wako Pure Chemical Corporation), Product No. 016-04805) to the aforementioned regular mediums such that the concentration in the calcification medium (that is, the final concentration) was 50 μg/mL, and by adding β-glycerophosphoric acid (Fujifilm Wako Pure Chemical Corporation, Product No. 191-02042) to the aforementioned regular mediums such that the concentration in the calcification medium (that is, the final concentration) is 10 mM.
Then, the cultivation was performed under the environment at 37° C. with 5% of CO2 for 21 or 28 days while exchanging the calcification medium or the additive containing calcification medium twice a week. Then the following staining was performed.
Alizarin red staining and von Kossa staining were performed to evaluate calcification promoting effect.
Each well was washed twice using Dulbecco's phosphate buffered saline (DPBS) (Life Technologies Ltd.; Product No. 14190-144) the amount of which was equal to the specified amount of culture medium in the adherent cell cultivation plate. After removing the DPBS from each well, 4% paraformaldehyde phosphate buffer solution (Fujifilm Wako Pure Chemical Corporation, Product No. 163-20145), the amount of which was equal to a half the amount of the specified amount of the culture medium, was introduced to each well, and each well was left for five minutes at a room temperature.
Then, each well was washed twice using the DPBS the amount of which was equal to the specified amount of the culture medium. After removing the DPBS from each well, Alizarin red staining solution, the amount of which was equal to a half the amount of the specified amount of the culture medium, was introduced to each well, and each well was left for ten minutes. The Alizarin red staining solution was prepared by dissolving a commercially available staining solution (Product name: “Alizarin red S”, Wako Pure Chemical Industries, Ltd. (currently Fujifilm Wako Pure Chemical Corporation), Product No. 011-01192) with ultrapure water (Milli-Q (registered trademark) water), and the pH was adjusted to be within a range from 6.36 to 6.40 using ammonium hydroxide solution.
Each well was then washed five times using the ultrapure water (same as above), the amount of which was equal to the specified amount of the culture medium.
Each well was washed three times using the Dulbecco's phosphate buffered saline (DPBS) (same as above) the amount of which was equal to the specified amount of the culture medium in the adherent cell cultivation plate.

[2] = used in human, dental clinical practices; cited from earlier work

Compound	calcification promoting action ([1]; HOB cells, 21 or 28 days)	relative calcification promoting action (comparison among compounds) [1]	further results
C=CCN=C=S [AITC, allyl isothiocyanate, reference compound]	completely no calcification promoting action	–	calcification action ([1]; range up to 500 μM): not exhibited
C[S+]([O-])CCCCCCCCN=C=S (stereo not shown) [8-MSITC, 8-methylsulfinyloctyl isothiocyanate]	possess calcification promoting action	particularly high; also recorded: about the same as the calcification promoting action of the 4-MSITC	–
C[S+]([O-])CCCCN=C=S (stereo not shown) [4-MSITC, 4-methylsulfinylbutyl isothiocyanate]	possess calcification promoting action	particularly high	–
[Ca+2].[OH-].[OH-] [calcium hydroxide]	–	–	normal duration of time until calcification occurs [2]: three months
CCN[C@H]1C[C@H](C)S(=O)(=O)c2sc(S(N)(=O)=O)cc21 [dorzolamide, reference compound]	–	–	effect on calcification when used with 6-methylsulfinylhexyl isothiocyanate ([1]; dorzolamide, inhibitor of carbonic anhydrase, used with 6-MSITC): calcification is inhibited
C[S+]([O-])CCCCN (stereo not shown) [4-MS amine, 4-methylsulfinylbutyl amine, reference compound]	completely no calcification promoting action	–	–
CS(=O)(=O)CCCCCCN=C=S [6-MSFITC, 6-methylsulfonylhexyl isothiocyanate]	possess calcification promoting action	particularly high; also recorded: higher calcification promoting action than the 4-MSITC	–
S=C=NCCc1ccccc1 [PITC, phenethyl isothiocyanate]	possess calcification promoting action	–	concentration at which particularly high calcification promoting action was observed ([1]; HOB cells, 21 or 28 days, staining): ≥ 500 µM
